Reference: patent publication US8178530B2, “Imidazolopyrazine compounds useful for the treatment of degenerative and inflammatory diseases” (Janssen Pharmaceutica NV, priority 2006, dated 2012)

How the values were obtained:
[1] = target: T1, MAPKAPK5 (Homo sapiens, UniProt Q8IW41); experiment: MAPKAP-K5 assay (FlashPlate, 33P-ATP); assay type: biochemical; conditions: 0.6 μM ATP, 30 minutes at room temperature
T1 construct: 1 mU MAPKAP-K5
T1 sequence (Q8IW41 1-473): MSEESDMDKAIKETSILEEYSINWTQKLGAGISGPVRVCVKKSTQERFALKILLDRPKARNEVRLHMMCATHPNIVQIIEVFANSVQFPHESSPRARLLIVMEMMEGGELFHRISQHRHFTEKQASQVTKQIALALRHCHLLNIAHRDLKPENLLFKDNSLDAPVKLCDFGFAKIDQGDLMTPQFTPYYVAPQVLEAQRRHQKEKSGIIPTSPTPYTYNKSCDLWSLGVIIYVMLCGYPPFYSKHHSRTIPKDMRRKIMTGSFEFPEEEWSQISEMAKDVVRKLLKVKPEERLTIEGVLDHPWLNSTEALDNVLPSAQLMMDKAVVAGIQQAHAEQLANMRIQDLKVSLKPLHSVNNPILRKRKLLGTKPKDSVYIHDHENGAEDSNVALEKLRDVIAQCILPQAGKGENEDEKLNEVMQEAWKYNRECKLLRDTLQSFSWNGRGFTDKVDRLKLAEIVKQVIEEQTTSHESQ
Protocol: 3 μM MAPKAP-K5 peptide substrate

[2] = tested on: MMP1 expression by SFs; experiment: 'MMP assay': MMP1 expression by 'complex trigger' activated synovial fibroblasts (MMP1 ELISA); assay type: cell-based, human; conditions: Homo sapiens, Fibroblast, RASFs, 48 hrs
Protocol: A 384-well format ELISA for measurement of MMP1 is developed. Various primary antibodies are tested, as well as various ELISA protocols. The following protocol is developed and validated to measure MMP1 levels in SF supernatant in 384 well plates: white Lumitrac 600 384 well plates (Greiner) are coated with 2 μg/mL anti-MMP1 antibody MAB1346 (Chemicon). The antibody is diluted in buffer 40 (1.21 g Tris base (Sigma), 0.58 g NaCl (Calbiochem) and 5 ml 10% NaN3 (Sigma) in 1 L milliQ water and adjusted to pH 8.5). After overnight incubation at 4° C., plates are washed with PBS (80 g NaCl, 2 g KCl (Sigma), 11.5 g Na2HPO4.7H2O and 2 g KH2PO4 in 10 L milliQ; pH 7.4) and blocked with 100 μL/well Casein buffer (2% Casein (VWR International) in PBS). Next day, casein buffer is removed from ELISA plates and replaced by 50 μL/well EC buffer (4 g casein, 2.13 g Na2HPO4 (Sigma), 2 g bovine albumin (Sigma), 0.69 g NaH2PO4.H2O (Sigma), 0.5 g CHAPS (Roche), 23.3 g NaCl, 4 mL 0.5 M EDTA pH 8 (Invitrogen), 5 mL 10% NaN3 in 1 L milliQ and adjusted to pH 7.0). 0.25 mM DTT (Sigma) is added to the thawed samples plates. After removal of the EC buffer, 20 μL of sample is transferred to the ELISA plates. After overnight incubation at 4° C. plates are washed twice with PBS and once with PBST (PBS with 0.05% Tween-20 (Sigma)) and incubated with 35 μL/well biotinylated anti-MMP1 antibody solution (R&D). This secondary antibody is diluted in buffer C (0.82 g NaH2PO4.H2O, 4.82 g Na2HPO4, 46.6 g NaCl, 20 g bovine albumin and 4 mL 0.5M EDTA pH 8 in 2 L milliQ and adjusted to pH 7.0) at a concentration of 5 μg/mL. After 2 h of incubation at RT, plates are washed as described above and incubated with 50 μL/well streptavidin-HRP conjugate (Biosource). Streptavidin-HRP conjugate is diluted in buffer C at a concentration of 0.25 μg/mL. After 45 min, plates are washed as described above and incubated for 5 min with 50 μL/well BM Chem ELISA Substrate (Roche). Readout is performed on the Luminoscan Ascent Luminometer (Labsystems) with an integration time of 200 msec or with an Envision reader (Perkin Elmer).
The increase of MMP1 expression by SFs upon treatment with cytokines relevant in the field of RA (TNF-α, IL1β and OSM) or a combination thereof is shown in FIG. 2 as white bars. For this experiment, SFs are seeded in 96 well plates, 3,000 cells/well. 24 h later, the medium is changed to M199 medium supplemented with 1% FBS. One day after the medium change, cytokines or combinations thereof are added to the cultures, each cytokine being added to a final concentration of 25 ng/mL. 72 h after cytokine addition, the supernatant is collected and processed in the MMP1 ELISA as described in the protocol given above. In parallel with this experiment, SFs are triggered, using the same protocol, with the supernatant of THP1 cells (2-fold diluted in M199+1% FBS) treated with the same cytokines or combinations of cytokines for 48 h in M199 medium+1% FBS. The induction of the MMP1 expression by SFs triggered with the supernatants of TNF-α-treated THP1 cells is stronger (>4.5 fold induction) as compared to the SFs triggered with recombinant TNF-α alone (3-fold induction) and almost equals the 5-fold induction obtained by a mixture of 3 purified cytokines (TNF-α, IL1βb, OSM). […] As the role of TNF-α in the RA pathogenesis is validated (TNF-α-blockers such as Infliximab and Etanercept show some efficacy in the treatment of RA patients) and the THP-1 cells are representative for monocytes/macrophages present in the joint of RA patients, the TNF-α-based trigger mixture prepared by contacting THP-1 cells with TNF-α will contain factors present in the joints of RA patients and subsequently is relevant to RA. This TNF-α-based complex trigger, further referred to as the ‘complex trigger’, will further be used as basis for the ‘MMP assay’.
Dexamethasone is shown to dose-dependently reduce amounts of MMP1 produced by complex trigger activated SFs. […]

Compound | IC50 [1] [nM] | EC50 [2] [nM]
CCN(CCO)c1ccc(Nc2ncc(-c3cccc(C(N)=O)c3)n3ccnc23)cc1 [Compound 2] | > 1000 | > 1000
CCN(CCO)c1ccc(Nc2ncc(-c3ccc(O)cc3C)n3ccnc23)cc1 [Compound 3] | > 1000 | –
CCN(CCO)c1ccc(Nc2ncc(-c3ccc(C(N)=O)cc3)n3ccnc23)cc1 [Compound 4] | > 1000 | 101 to 500
CCN(CCO)c1ccc(Nc2ncc(-c3ccc(O)cc3)n3ccnc23)cc1 [Compound 5] | > 1000 | 101 to 500
CCN(CCO)c1ccc(Nc2ncc(-c3ccc(N)cc3)n3ccnc23)cc1 [Compound 6] | > 1000 | > 1000
CCN(CCO)c1ccc(Nc2ncc(-c3cccc(N)c3)n3ccnc23)cc1 [Compound 7] | > 1000 | > 1000
c1cn2c(-c3cn[nH]c3)cnc(NCc3ccc(N4CCOCC4)cc3)c2n1 [Compound 8] | > 1000 | –
CCN(CC)c1ccc(Nc2ncc(-c3cn[nH]c3)n3ccnc23)cc1 [Compound 9] | 501 to 1000 | > 1000
NC(=O)c1cccc(Nc2ncc(-c3cn[nH]c3)n3ccnc23)c1 [Compound 10] | > 1000 | > 1000
CCN(CCO)c1ccc(Nc2ncc(-c3cn[nH]c3)n3ccnc23)c(C)c1 [Compound 12] | > 1000 | > 1000
Nc1ccc(Nc2ncc(-c3cn[nH]c3)n3ccnc23)cc1 [Compound 15] | > 1000 | > 1000
COc1cccc(Nc2ncc(-c3cn[nH]c3)n3ccnc23)c1 [Compound 16] | > 1000 | > 1000
Fc1ccc(Nc2ncc(-c3cn[nH]c3)n3ccnc23)cc1Cl [Compound 17] | > 1000 | > 1000
NC(=O)c1ccc(-c2cnc(Nc3ccc(N)cc3)c3nccn23)cc1 [Compound 18] | > 1000 | > 1000
COc1cccc(Nc2ncc(-c3ccc(C(N)=O)cc3)n3ccnc23)c1 [Compound 19] | > 1000 | 501 to 1000
COC(=O)c1cccc(Nc2ncc(-c3cn[nH]c3)n3ccnc23)c1 [Compound 20] | > 1000 | > 1000
c1cn2c(-c3ccc4[nH]ccc4c3)cnc(Nc3ccc(N4CCOCC4)cc3)c2n1 [Compound 21] | > 1000 | > 1000
CC(C)(C)OC(=O)c1ccc(Nc2ncc(-c3cn[nH]c3)n3ccnc23)cc1 [Compound 22] | > 1000 | > 1000
O=C(O)c1ccc(Nc2ncc(-c3cn[nH]c3)n3ccnc23)cc1 [Compound 23] | > 1000 | > 1000
NC(=O)Cn1cc(-c2cnc(Nc3ccc(N4CCOCC4)cc3)c3nccn23)cn1 [Compound 24] | > 1000 | > 1000
O[C@H]1CC[C@H](Nc2ncc(-c3cn[nH]c3)n3ccnc23)CC1 [Compound 25] | > 1000 | > 1000
CN1CCN(c2ccc(Nc3ncc(-c4ccc(C(N)=O)cc4)n4ccnc34)cc2)CC1 [Compound 26] | 501 to 1000 | –
c1cn2c(-c3cn[nH]c3)cnc(Nc3ccc4[nH]ccc4c3)c2n1 [Compound 27] | 501 to 1000 | > 1000
NC(=O)c1ccc(-c2cnc(Nc3ccc4[nH]ccc4c3)c3nccn23)cc1 [Compound 28] | > 1000 | 501 to 1000
NS(=O)(=O)c1ccc(-c2cnc(Nc3ccc(N4CCOCC4)cc3)c3nccn23)cc1 [Compound 29] | > 1000 | > 1000
CS(=O)(=O)Nc1ccc(Nc2ncc(-c3cn[nH]c3)n3ccnc23)cc1 [Compound 30] | 501 to 1000 | > 1000
CC(=O)Nc1ccc(Nc2ncc(-c3cn[nH]c3)n3ccnc23)cc1 [Compound 31] | 501 to 1000 | > 1000
Cc1cc(Nc2ncc(-c3cn[nH]c3)n3ccnc23)ccc1C(N)=O [Compound 33] | > 1000 | > 1000
COc1cc(Nc2ncc(-c3cn[nH]c3)n3ccnc23)ccc1C(=O)NCc1ccc(C)nc1 [Compound 184, 2-Methoxy-N-(6-methylpyridin-3-ylmethyl)-4-[5-(1H-pyrazol-4-yl)imidazo[1,2-a]pyrazin-8-ylamino]benzamide] | – | 101 to 500
CCc1cnc2c(Nc3ccc(N4CCOCC4)cc3)ncc(-c3cn[nH]c3)n12 [Compound 189, [3-Ethyl-5-(1H-pyrazol-4-yl)imidazo[1,2-a]pyrazin-8-yl]-(4-morpholin-4-yl-phenyl)amine] | – | 501 to 1000

Second part, led by results:

IC50 [1] [nM] | Compound | EC50 [2] [nM]
> 1000 | N#Cc1ccc(Nc2ncc(-c3cn[nH]c3)n3ccnc23)cc1Cl [Compound 34] | 501 to 1000
> 1000 | NC(=O)c1ccc(Nc2ncc(-c3cn[nH]c3)n3cc(Br)nc23)cc1 [Compound 37] | > 1000
> 1000 | NC(=O)c1ccc(Nc2ncc(-c3cn[nH]c3)n3ccnc23)nc1 [Compound 38] | > 1000
> 1000 | O=C(O)c1ccc(-c2cnc(Nc3ccc(N4CCOCC4)cc3)c3nccn23)cc1F [Compound 39] | > 1000
> 1000 | Nc1cc(C(=O)O)ccc1-c1cnc(Nc2ccc(N3CCOCC3)cc2)c2nccn12 [Compound 40] | > 1000
> 1000 | c1cncc(Nc2ncc(-c3cn[nH]c3)n3ccnc23)c1 [Compound 42] | > 1000
> 1000 | CN1CCN(c2ccc(Nc3ncc(-c4ccc(C(=O)O)cc4)n4ccnc34)cc2)CC1 [Compound 43] | > 1000
> 1000 | O=C(O)c1ccc(-c2cnc(Nc3ccc(C(=O)NCc4cccnc4)cc3)c3nccn23)cc1 [Compound 44] | > 1000
> 1000 | CCN(CC)CCNC(=O)c1ccc(Nc2ncc(-c3ccc(C(N)=O)cc3)n3ccnc23)cc1 [Compound 46] | > 1000
> 1000 | CCN(CC)CCNC(=O)c1ccc(Nc2ncc(-c3ccc(C(=O)O)cc3)n3ccnc23)cc1 [Compound 47] | > 1000
> 1000 | CCN(CC)CCNC(=O)c1ccc(Nc2ncc(-c3cn[nH]c3)n3ccnc23)cc1OC [Compound 48] | > 1000
> 1000 | CCc1cnc2c(Nc3ccc(N4CCOCC4)cc3)ncc(-c3cc[nH]c(=O)c3)n12 [Compound 180] | –
101 to 500 | CC(C)N1CCN(c2ccc(Nc3ncc(-c4cc5c(s4)C(=O)NC5)n4ccnc34)cc2)CC1 [Compound 228] | –
101 to 500 | O=C1NCc2cc(-c3cnc(Nc4cncnc4)c4nccn34)ccc21 [Compound 230] | –
